Assays:
[1] = target: T1, hDAT (human dopamine transporter) (Homo sapiens, UniProt Q01959); assay: two-electrode voltage clamp (-60 mV), Xenopus oocytes expressing hDAT, block of transporter leak current; assay type: cell-based
T1 construct: gene SLC6A3

[2] = target: T1, hDAT (human dopamine transporter); assay: two-electrode voltage clamp (-60 mV), Xenopus oocytes expressing hDAT, inward current; assay type: cell-based

T1 sequence (Q01959 whole entry): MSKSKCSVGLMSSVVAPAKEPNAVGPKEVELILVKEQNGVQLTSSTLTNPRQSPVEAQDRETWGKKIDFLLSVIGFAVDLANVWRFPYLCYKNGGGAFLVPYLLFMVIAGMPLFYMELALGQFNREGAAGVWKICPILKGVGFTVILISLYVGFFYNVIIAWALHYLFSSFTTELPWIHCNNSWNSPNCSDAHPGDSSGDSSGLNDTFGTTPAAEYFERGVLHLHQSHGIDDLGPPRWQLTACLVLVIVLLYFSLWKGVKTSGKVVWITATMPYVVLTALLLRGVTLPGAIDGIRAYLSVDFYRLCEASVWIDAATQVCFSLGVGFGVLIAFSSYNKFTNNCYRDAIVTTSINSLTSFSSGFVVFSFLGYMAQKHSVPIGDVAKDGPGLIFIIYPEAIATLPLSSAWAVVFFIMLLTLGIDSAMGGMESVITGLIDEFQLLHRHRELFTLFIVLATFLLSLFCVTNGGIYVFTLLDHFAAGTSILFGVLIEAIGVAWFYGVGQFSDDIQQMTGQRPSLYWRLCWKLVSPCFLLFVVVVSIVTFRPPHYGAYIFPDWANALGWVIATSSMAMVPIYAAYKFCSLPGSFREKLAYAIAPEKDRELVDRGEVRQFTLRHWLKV

Row | SMILES | EC50 [1] [nM] | EC50 [2] [nM]
1 | C[C@H]1[C@H](c2ccccc2)OCCN1C [2S,3S(+)-PDM, (2S,3S)-(+)-3,4-Dimethyl-2-phenylmorpholine] | 2560 ± 820 | 
2 | C[C@H]1NCCO[C@@H]1c1ccccc1 [2R,3R(−)-PM, (2R,3R)-(+)-3-Methyl-2-phenylmorpholine] |  | 2630 ± 600
3 | C[C@@H]1[C@@H](c2ccccc2)OCCN1C [2R,3R(−)-PDM, (2R,3R)-(+)-3,4-Dimethyl-2-phenylmorpholine] | ~23500 | 
4 | C[C@@H]1NCCO[C@H]1c1ccccc1 [2S,3S(+)-PM, (2S,3S)-(+)-3-Methyl-2-phenylmorpholine] |  | 750 ± 140
